Results published in ChEMBL document CHEMBL1201862, “PubChem BioAssay data set” (2004).
Activity calls are given as the source filed them.

Assays:
[1] = molecular target: Induced myeloid leukemia cell differentiation protein Mcl-1 (Homo sapiens, UniProt Q07820); assay type: functional
[2] = molecular target: T1, Replicative DNA helicase DnaB (Mycobacterium tuberculosis, UniProt P9WMR3); assay: DnaB intein splicing inhibitors, dose response, biochemical, cell-free fluorescence (AID 449749); assay type: functional
T1 sequence (P9WMR3 whole entry): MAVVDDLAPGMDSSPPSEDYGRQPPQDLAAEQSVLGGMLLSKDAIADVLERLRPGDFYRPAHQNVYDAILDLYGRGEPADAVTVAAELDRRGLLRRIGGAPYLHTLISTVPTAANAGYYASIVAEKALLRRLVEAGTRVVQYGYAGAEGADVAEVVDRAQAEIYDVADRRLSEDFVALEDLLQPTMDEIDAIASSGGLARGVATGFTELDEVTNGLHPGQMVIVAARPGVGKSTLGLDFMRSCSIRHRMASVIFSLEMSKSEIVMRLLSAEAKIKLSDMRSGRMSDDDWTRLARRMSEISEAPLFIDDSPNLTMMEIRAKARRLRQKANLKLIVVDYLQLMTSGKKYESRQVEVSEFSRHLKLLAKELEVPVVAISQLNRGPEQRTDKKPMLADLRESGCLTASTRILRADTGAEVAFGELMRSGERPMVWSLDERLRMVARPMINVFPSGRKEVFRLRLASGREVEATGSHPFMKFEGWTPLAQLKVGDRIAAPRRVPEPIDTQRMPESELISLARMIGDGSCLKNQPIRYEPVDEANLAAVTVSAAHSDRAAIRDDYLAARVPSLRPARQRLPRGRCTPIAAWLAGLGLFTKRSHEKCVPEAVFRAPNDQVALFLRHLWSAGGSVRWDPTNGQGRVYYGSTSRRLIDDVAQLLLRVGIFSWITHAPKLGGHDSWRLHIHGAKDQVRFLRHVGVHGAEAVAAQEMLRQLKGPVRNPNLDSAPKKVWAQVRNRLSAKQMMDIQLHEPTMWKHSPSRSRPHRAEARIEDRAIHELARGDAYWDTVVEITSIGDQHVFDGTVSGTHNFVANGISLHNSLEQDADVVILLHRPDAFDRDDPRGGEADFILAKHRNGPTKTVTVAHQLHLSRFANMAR

[3] = molecular target: T2, Protein RecA (Mycobacterium tuberculosis, UniProt P9WHJ3); assay: Fluorescence Cell-Free Homogeneous Dose Retest to Identify Inhibitors of RecA-Intein Splicing Activity. [Related pubchem assays (depositor defined):AID2097, AID2223, AID489010, AID492950]; assay type: functional
T2 sequence (P9WHJ3 whole entry): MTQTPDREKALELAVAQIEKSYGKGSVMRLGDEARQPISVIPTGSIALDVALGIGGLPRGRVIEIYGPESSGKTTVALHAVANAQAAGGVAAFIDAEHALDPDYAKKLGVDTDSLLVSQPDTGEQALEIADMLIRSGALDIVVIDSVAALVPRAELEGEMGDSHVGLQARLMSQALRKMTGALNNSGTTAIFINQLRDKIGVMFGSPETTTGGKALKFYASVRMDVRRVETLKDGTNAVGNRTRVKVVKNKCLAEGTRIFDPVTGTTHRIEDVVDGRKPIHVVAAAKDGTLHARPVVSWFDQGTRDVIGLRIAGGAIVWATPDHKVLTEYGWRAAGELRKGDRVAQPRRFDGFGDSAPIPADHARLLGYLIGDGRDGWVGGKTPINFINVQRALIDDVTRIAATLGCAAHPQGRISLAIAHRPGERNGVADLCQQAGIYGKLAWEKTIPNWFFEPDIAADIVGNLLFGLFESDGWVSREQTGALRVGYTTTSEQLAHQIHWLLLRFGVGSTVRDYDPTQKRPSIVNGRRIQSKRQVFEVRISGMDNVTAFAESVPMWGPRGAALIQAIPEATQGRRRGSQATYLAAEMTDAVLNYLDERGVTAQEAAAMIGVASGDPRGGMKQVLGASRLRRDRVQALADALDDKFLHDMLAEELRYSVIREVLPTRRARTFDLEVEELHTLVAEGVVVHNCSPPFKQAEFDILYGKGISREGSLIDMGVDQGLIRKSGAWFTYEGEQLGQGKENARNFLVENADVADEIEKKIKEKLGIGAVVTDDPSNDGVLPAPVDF

[4] = luciferase reporter signal suppression in cells – H4 neuroglioma cells, luminescence, dose response (AID 1990); assay type: functional, cell-based
[5] = molecular target: Luciferin 4-monooxygenase (Photinus pyralis, UniProt P08659); assay: Counter Screen for Luciferase-based Assay Positives. [Related pubchem assays: 620, 618, 411 ]
Sequence of Luciferin 4-monooxygenase (P08659 whole entry): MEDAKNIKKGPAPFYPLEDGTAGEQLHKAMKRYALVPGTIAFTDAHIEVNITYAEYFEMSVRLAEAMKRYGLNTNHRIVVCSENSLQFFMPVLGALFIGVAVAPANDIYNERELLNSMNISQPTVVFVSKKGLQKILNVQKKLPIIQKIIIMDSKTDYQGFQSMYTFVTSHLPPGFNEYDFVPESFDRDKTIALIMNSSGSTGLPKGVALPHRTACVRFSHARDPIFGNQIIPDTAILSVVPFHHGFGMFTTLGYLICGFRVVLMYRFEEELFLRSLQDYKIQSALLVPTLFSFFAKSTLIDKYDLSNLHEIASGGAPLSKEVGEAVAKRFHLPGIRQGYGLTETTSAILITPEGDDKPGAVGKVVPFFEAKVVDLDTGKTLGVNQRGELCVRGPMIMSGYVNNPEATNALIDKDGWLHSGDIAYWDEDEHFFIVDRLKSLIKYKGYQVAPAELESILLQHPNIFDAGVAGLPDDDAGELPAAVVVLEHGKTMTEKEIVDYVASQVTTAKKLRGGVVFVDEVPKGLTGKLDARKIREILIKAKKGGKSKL

[6] = Luminescence Cell-Based Dose Response HTS to Identify Inhibitors of 5'UTR Stem-Loop Driven Prion Protein mRNA Translation in H4 Neuroglioblastoma Cells. [Related pubchem assays: 1827 (Project Summary), 1813 (Primary HTS)]; assay type: functional
[7] = molecular target: T3, Heat shock factor protein 1 (Mus musculus, UniProt P38532); assay: decrease of HSF1-responsive luciferase luminescence – cell-based, NIH3T3, dose retest, confirmation (AID 2382); assay type: functional;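 also: NIH3T3 fibroblasts with HSF1-driven luciferase reporter stressed by proteasome inhibitor MG132; luminescence from HSF1-driven luciferase expression after 8 hours of MG132 stress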
T3 sequence (P38532 whole entry): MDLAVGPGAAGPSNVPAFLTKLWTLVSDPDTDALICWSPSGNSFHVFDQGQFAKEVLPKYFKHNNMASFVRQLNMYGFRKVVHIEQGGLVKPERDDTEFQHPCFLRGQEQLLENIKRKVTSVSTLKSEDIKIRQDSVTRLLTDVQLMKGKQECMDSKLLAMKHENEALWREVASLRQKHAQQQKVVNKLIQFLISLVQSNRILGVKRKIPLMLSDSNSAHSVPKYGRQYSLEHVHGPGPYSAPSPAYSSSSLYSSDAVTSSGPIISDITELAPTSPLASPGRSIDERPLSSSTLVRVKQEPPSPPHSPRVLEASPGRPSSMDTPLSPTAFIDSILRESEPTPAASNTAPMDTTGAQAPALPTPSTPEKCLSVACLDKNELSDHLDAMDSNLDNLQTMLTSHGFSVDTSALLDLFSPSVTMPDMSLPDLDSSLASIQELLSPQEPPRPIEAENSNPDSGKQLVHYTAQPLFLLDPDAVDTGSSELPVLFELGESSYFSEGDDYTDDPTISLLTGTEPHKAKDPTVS

[8] = alpha-synuclein stem-loop luciferase translation blockers – H4 neuroglioma cells, luminescence, confirmation (AID 1988); assay type: functional, cell-based
[9] = system: HT-1080; assay: HT1080 cell viability loss – fluorescence readout (AID 620); assay type: functional, cell-based; conditions: Homo sapiens
[10] = molecular target: T4, Rac GTPase-activating protein 1 (Homo sapiens, UniProt Q9H0H5); assay: blockers of MgcRacGAP-driven Rac1 GTP hydrolysis – biochemical, ADP Hunter fluorescence, primary and confirmatory, confirmation (AID 624330); assay type: functional
T4 sequence (Q9H0H5 whole entry): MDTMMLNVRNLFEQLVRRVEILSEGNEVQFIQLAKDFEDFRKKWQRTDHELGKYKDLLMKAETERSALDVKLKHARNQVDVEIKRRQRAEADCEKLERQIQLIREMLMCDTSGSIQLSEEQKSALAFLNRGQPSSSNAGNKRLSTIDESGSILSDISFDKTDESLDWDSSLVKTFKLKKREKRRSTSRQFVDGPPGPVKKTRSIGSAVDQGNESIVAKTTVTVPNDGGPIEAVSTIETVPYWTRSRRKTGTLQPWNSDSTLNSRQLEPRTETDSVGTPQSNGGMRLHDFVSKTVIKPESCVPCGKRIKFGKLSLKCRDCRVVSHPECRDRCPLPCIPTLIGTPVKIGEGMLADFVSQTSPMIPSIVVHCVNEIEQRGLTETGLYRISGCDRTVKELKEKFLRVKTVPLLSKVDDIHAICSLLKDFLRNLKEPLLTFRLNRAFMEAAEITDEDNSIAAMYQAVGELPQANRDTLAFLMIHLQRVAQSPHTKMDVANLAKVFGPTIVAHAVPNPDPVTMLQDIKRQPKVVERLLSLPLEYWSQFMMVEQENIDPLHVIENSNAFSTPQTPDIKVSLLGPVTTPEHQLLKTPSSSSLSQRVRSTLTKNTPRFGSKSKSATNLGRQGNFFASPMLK

[11] = Luminescence Cell-Based Dose Confirmation HTS to Identify Activators of 5'UTR Stem-Loop Driven Alpha-Synuclein mRNA Translation in H4 Neuroglioblastoma Cells. [Related pubchem assays: 1829 (Project Summary), 1814 (Primary HTS)]; assay type: functional
[12] = Luminescence Cell-Based Dose Response HTS to Identify Activators of Luciferase Translation or Activity in H4 […] Cells. [Related pubchem assays: 1829 (Project Summary), 1814 (Primary HTS)]; assay type: functional
[13] = system: H4; assay: Luminescence Cell-Based Dose Response HTS to Identify Activators of 5'UTR Stem-Loop Driven Prion Protein mRNA Translation in H4 Neuroglioblastoma Cells. [Related pubchem assays: 1829 (Project Summary), 1814 (Primary HTS)]; assay type: functional; conditions: Homo sapiens
[14] = molecular target: T5, Protein skinhead-1 (Caenorhabditis elegans, UniProt P34707); assay type: functional
T5 sequence (P34707 whole entry): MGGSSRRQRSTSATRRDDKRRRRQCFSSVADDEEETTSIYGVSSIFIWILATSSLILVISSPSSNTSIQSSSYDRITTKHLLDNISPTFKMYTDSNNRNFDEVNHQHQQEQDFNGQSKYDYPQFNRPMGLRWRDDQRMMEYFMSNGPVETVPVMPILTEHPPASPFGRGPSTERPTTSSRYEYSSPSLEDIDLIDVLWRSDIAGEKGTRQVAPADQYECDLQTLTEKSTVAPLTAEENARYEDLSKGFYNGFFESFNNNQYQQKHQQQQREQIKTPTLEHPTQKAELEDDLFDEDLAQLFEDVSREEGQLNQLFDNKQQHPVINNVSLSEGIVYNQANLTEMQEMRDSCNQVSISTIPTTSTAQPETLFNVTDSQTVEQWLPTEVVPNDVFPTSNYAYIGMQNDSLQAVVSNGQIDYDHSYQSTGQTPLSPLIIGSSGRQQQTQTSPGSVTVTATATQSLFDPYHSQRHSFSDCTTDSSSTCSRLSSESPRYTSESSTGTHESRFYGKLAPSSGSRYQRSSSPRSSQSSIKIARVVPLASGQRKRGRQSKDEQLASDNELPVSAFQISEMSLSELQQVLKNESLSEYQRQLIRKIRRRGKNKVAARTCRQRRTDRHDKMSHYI

[15] = molecular target: T6, Estrogen receptor (Homo sapiens, UniProt P03372);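 also: potency for inhibiting coactivator peptide recruitment to the receptor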
T6 sequence (P03372 whole entry): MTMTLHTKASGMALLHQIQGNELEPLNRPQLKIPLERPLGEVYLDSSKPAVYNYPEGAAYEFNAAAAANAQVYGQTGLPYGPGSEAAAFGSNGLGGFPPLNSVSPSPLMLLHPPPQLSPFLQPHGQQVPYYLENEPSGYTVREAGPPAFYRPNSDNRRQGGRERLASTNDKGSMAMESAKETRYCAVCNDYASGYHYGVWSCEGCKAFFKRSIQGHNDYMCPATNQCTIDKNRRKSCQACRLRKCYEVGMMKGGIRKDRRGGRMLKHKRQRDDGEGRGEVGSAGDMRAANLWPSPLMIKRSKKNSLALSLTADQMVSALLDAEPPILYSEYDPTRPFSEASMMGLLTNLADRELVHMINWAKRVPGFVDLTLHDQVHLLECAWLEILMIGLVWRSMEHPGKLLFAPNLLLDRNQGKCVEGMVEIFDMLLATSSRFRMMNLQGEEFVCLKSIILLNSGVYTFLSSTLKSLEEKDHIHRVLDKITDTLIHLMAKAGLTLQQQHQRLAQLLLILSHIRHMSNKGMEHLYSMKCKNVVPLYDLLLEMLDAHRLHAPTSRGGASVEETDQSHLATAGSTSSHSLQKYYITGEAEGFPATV

[16] = Trypanosoma cruzi growth suppression in host cells – NIH3T3 host cells, beta-gal luminescence, confirmation (AID 2044); assay type: functional, cell-based;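 also: intracellular parasites grown in NIH/3T3 mouse fibroblasts as host cells; luminescent beta-galactosidase reporter signal from transgenic T. cruzi replicating inside host cells; inhibitors lower the luminescence signal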
[17] = NIH3T3 cell viability loss – ATP luminescence, mouse fibroblasts, counter-screen, dose response (AID 2010); assay type: functional, cell-based;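 also: cells exposed to compound for about 90 hours before reading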
[18] = blockers of bursicon-stimulated LGR2 cAMP reporter – cell-based, HEK293, CRE-luciferase reporter, cherry pick, set 2, dose response (AID 743343); assay type: functional;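 also: transfected cells were stimulated with diluted bursicon conditioned medium after compound addition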
[19] = blockade of melanocortin 4 receptor signaling – cell-based, plate reader, cherry pick, counter-screen for LGR2 antagonist project, dose response (AID 743444); assay type: functional;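 also: transfected HEK 293 cells stimulated with alpha-MSH peptide; potency of inhibitors of the alpha-MSH evoked signal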
[20] = blockers of HIV-1 envelope-mediated cell-cell fusion – cherry-pick, dose response (AID 652057); assay type: functional, cell-based
[21] = blockers of HIV-1 ZM109 envelope-driven cell-cell fusion – HeLa effector, CEM target cells, luciferase, cherry-pick, dose response (AID 652058); assay type: functional, cell-based;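 also: luciferase signal from HIV-1 Env mediated cell-cell fusion of effector and target cells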
[22] = HIV-1 AD8 envelope cell-cell fusion blockers – cherry-pick, dose response (AID 652062); assay type: functional, cell-based;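 also: luciferase signal from cell-cell fusion driven by HIV-1 clade B AD8 Env; potency is for inhibitors of fusion seen as a drop in luminescence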

Sequence of Induced myeloid leukemia cell differentiation protein Mcl-1 (Q07820 whole entry): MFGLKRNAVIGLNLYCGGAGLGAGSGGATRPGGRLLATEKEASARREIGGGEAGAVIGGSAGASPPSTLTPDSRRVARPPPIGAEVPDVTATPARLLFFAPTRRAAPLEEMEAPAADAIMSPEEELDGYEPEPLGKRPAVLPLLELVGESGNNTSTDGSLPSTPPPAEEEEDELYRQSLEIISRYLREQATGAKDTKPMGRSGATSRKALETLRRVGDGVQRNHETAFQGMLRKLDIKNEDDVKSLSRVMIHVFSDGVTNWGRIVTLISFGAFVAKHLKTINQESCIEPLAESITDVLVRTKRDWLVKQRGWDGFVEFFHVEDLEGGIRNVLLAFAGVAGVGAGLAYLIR

CCC(=O)N(CC)C1=C(O)C(=O)c2ccccc2C1=O
IC50 [1]: 1.44 µM (active)
AC50 [2]: 14.5 µM (active)
EC50 [3]: 8.5 µM (active)

O=C(O)CCSc1nnc(-c2ccc3c(c2)OCO3)o1
EC50 [4]: 8.07 µM (active)
EC50 [5]: 27.7 µM (active)
EC50 [6]: > 120 µM (not active)
EC50 [7]: 3.01 µM (active)
EC50 [8]: 10.6 µM (active)
EC50 [9]: > 50 µM (not active)

Cc1ccc(N2CC(C(=O)Nc3ccc(N(C)C)cc3)CC2=O)cc1C (centres undefined)
IC50 [1]: 3.29 µM (not active)
IC50 [10]: 54.2 µM (active)

O=C(Nc1ccc2oc(-c3ccccc3)nc2c1)c1cccs1
EC50 [11]: < 0.1 µM (active)
EC50 [12]: 0.131 µM (active)
EC50 [13]: > 120 µM (not active)

CCOc1ccc(C(=O)Nc2cc(NC(=O)c3ccc(OCC)c(Cl)c3)cc(C(=O)O)c2)cc1Cl
IC50 [1]: 14.3 µM (active)

CCOc1ccc(-c2nnc(-c3ccco3)o2)cc1
EC50 [5]: < 0.2 µM (active)
EC50 [9]: > 50 µM (not active)
IC50 [14]: 28.9 µM (active)

CSc1ncc2c(n1)-c1cc(C)ccc1SC2
IC50 [15]: > 50 µM (not active)
EC50 [16]: 0.135 µM (active)
EC50 [17]: > 30 µM (not active)

O=C(Nc1ccc(Cl)c(S(=O)(=O)N2CCOCC2)c1)c1ccc2c(c1)OCCO2
AC50 [18]: 37.9 µM (active)
AC50 [19]: 38.9 µM (active)

COc1ccc(OC)c(NC(=O)c2cc(-c3ccc(C)cc3O)[nH]n2)c1
IC50 [15]: 22.1 µM (active)

Cn1cc(C(=O)NC2CCCCCC2)c(=O)c2cc(S(=O)(=O)N3CCCC3)ccc21
IC50 [15]: > 50 µM (not active)

O=C1N=C(NNc2ccccc2)S/C1=C\c1ccccc1
IC50 [1]: 4.76 µM (not active)

C[C@H]1CN([C@@H](C)CO)C(=O)c2cc(NC(=O)Nc3ccc4c(c3)OCO4)ccc2O[C@H]1CN(C)S(=O)(=O)c1ccc(Cl)cc1
AC50 [20]: 1.49 µM (active)
AC50 [21]: 5.25 µM (active)
AC50 [22]: 14.5 µM (active)
